{
  "source": "patent US20070122486A1",
  "about": "“Nanoparticulate insulin” (Elan Pharma International Limited, priority 2001, published 2007)",
  "origin": "cited, not measured here",
  "settings": "physiological conditions",
  "data": [
    {"substance": "Soluble insulin: Available soluble composition of insulin, a 5.8 kD protein hormone", "values": [
      {"measurement": "duration of activity", "result": "about six"},
      {"measurement": "onset of activity", "result": "about 30 minutes"}
    ]}
  ]
}
